# Experimental data from ChEMBL document CHEMBL5136961, “Deglycase-activity oriented screening to identify DJ-1 inhibitors” (RSC Med Chem, 2021).
# Target: T1, Parkinson disease protein 7 (Homo sapiens, UniProt Q99497)
# T1 sequence (Q99497 whole entry): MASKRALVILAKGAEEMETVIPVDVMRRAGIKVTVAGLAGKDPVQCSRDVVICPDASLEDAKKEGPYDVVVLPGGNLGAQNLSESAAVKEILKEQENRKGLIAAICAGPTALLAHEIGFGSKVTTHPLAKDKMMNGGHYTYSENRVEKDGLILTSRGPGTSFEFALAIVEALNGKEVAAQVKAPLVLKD
# Assay: Inhibition of pET3a-His-tagged DJ1 (unknown origin) expressed in Escherichia coli BL21 assessed as decrease in esterase activity using DiFMUAc as substrate
row,SMILES,IC50 [nM]
1,C#CCOc1cc2ccccc2cc1C(=O)NC1=CC(=O)C2OC2C1O (stereo not drawn),510
2,O=C(O)Cc1ccc2c(c1)N(CCc1ccccc1)C(=O)C2=O,2350
3,O=C1N(CCc2ccccc2)c2ccc(F)cc2C1(Cl)Cl,1700
4,O=C1C(=O)N(CCc2ccccc2)c2ccc(F)cc21,118
5,O=C1C(=O)N(CCc2ccccc2)c2ccccc21,701
6,O=C1C(Cl)c2cc(F)ccc2N1CCc1ccccc1 (stereo not drawn),85
7,O=C1C(=O)N(CC2(c3ccccc3)CC2)c2ccc(F)cc21,356
8,O=C1C(=O)N(CCc2ccccc2)c2c(Br)cc(Br)cc21,62.6
9,CC(C)(C)CCN1C(=O)C(=O)c2cc(F)ccc21,851
10,O=C1C(F)c2cc(F)ccc2N1CCc1ccccc1 (stereo not drawn),700
11,O=C1/C(=C/Cl)c2cc(F)ccc2N1CCc1ccccc1,15000

# More lines, now with the values ahead:
row,IC50 [nM],SMILES
1,676,Cc1ccc(CN2C(=O)C(=O)c3cc(Br)cc(Br)c32)cc1
2,118,CCN1C(=O)C(=O)c2cc(F)ccc21
3,180,O=C1C=C(CCc2ccccc2)c2ccccc2C1=O
4,54.6,COc1cc(F)cc2c1N(CCc1ccccc1)C(=O)C2=O
5,267,COc1ccc(CN2C(=O)C(=O)c3cc(Br)cc(Br)c32)cc1
6,9790,O=C(O)c1ccc2c(c1)C(=O)C(=O)N2CCc1ccccc1
7,2930,COc1ccc2c(c1)C(=O)C(=O)N2CCc1ccccc1
